Experimental data from PMC8401933 (Molecules, 2021).

Columns and labels:
Test in all cases: KINOMEscan binding
PIP5K2B = biological target: T1, PIP5K2B (Homo sapiens, UniProt P78356); conditions: read-out: Percent Control
T1 construct: purchased Eurofins DiscoverX KINOMEscan

FLT3(ITD) = tested on: FLT3(ITD); set-up: species or system human; conditions: 10 μM
LATS2 = biological target: T2, LATS2 (Homo sapiens, UniProt Q9NRM7); conditions: read-out: Percent Control
T2 construct: purchased Eurofins DiscoverX KINOMEscan

LTK = biological target: T3, LTK (Homo sapiens, UniProt P29376); conditions: read-out: Percent Control
T3 construct: purchased Eurofins DiscoverX KINOMEscan

KIT(D816V) = biological target: T4, KIT(D816V) (Homo sapiens, UniProt P10721, D816V); conditions: read-out: Percent Control
T4 construct: purchased Eurofins DiscoverX KINOMEscan

EPHA2 = biological target: T5, EPHA2 (Homo sapiens, UniProt P29317); conditions: read-out: Percent Control
T5 construct: purchased Eurofins DiscoverX KINOMEscan

RAF1 = biological target: T6, RAF1 (Homo sapiens, UniProt P04049); conditions: read-out: Percent Control
T6 construct: purchased Eurofins DiscoverX KINOMEscan

STK16 = biological target: T7, STK16 (Homo sapiens, UniProt O75716); conditions: read-out: Percent Control
T7 construct: purchased Eurofins DiscoverX KINOMEscan

LKB1 = biological target: T8, LKB1 (Homo sapiens, UniProt Q15831); conditions: read-out: Percent Control
T8 construct: purchased Eurofins DiscoverX KINOMEscan

PIM3 = biological target: T9, PIM3 (Homo sapiens, UniProt Q86V86); conditions: read-out: Percent Control
T9 construct: purchased Eurofins DiscoverX KINOMEscan

NEK3 = biological target: T10, NEK3 (Homo sapiens, UniProt P51956); conditions: read-out: Percent Control
T10 construct: purchased Eurofins DiscoverX KINOMEscan

ALK(C1156Y) = biological target: T11, ALK(C1156Y) (Homo sapiens, UniProt Q9UM73, C1156Y); conditions: read-out: Percent Control
T11 construct: purchased Eurofins DiscoverX KINOMEscan

JNK2 = biological target: T12, JNK2 (Homo sapiens, UniProt P45984); conditions: read-out: Percent Control
T12 construct: purchased Eurofins DiscoverX KINOMEscan

MKNK1 = biological target: T13, MKNK1 (Homo sapiens, UniProt Q9BUB5); conditions: read-out: Percent Control
T13 construct: purchased Eurofins DiscoverX KINOMEscan

MKNK2 = biological target: T14, MKNK2 (Homo sapiens, UniProt Q9HBH9); conditions: read-out: Percent Control
T14 construct: purchased Eurofins DiscoverX KINOMEscan

CASK = biological target: T15, CASK (Homo sapiens, UniProt O14936); conditions: read-out: Percent Control
T15 construct: purchased Eurofins DiscoverX KINOMEscan

PRKD1 = biological target: T16, PRKD1 (Homo sapiens, UniProt Q15139); conditions: read-out: Percent Control
T16 construct: purchased Eurofins DiscoverX KINOMEscan

TSSK3 = biological target: T17, TSSK3 (Homo sapiens, UniProt Q96PN8); conditions: read-out: Percent Control
T17 construct: purchased Eurofins DiscoverX KINOMEscan

MST1 = biological target: T18, MST1 (Homo sapiens, UniProt Q13043); conditions: read-out: Percent Control
T18 construct: purchased Eurofins DiscoverX KINOMEscan

MAPKAPK5 = biological target: T19, MAPKAPK5 (Homo sapiens, UniProt Q8IW41); conditions: read-out: Percent Control
T19 construct: purchased Eurofins DiscoverX KINOMEscan

ACVR1B = biological target: T20, ACVR1B (Homo sapiens, UniProt P36896); conditions: read-out: Percent Control
T20 construct: purchased Eurofins DiscoverX KINOMEscan

FGFR4 = biological target: T21, FGFR4 (Homo sapiens, UniProt P22455); conditions: read-out: Percent Control
T21 construct: purchased Eurofins DiscoverX KINOMEscan

LIMK1 = biological target: T22, LIMK1 (Homo sapiens, UniProt P53667); conditions: read-out: Percent Control
T22 construct: purchased Eurofins DiscoverX KINOMEscan

TNNI3K = biological target: T23, TNNI3K (Homo sapiens, UniProt Q59H18); conditions: read-out: Percent Control
T23 construct: purchased Eurofins DiscoverX KINOMEscan

[1] = biological target: T24, JAK3(JH1domain-catalytic) (Homo sapiens, UniProt P52333); conditions: read-out: Percent Control
T24 construct: JAK3(JH1domain-catalytic); purchased Eurofins DiscoverX KINOMEscan

ASK2 = biological target: T25, ASK2 (Homo sapiens, UniProt O95382); conditions: read-out: Percent Control
T25 construct: purchased Eurofins DiscoverX KINOMEscan

FLT1 = biological target: T26, FLT1 (Homo sapiens, UniProt P17948); conditions: read-out: Percent Control
T26 construct: purchased Eurofins DiscoverX KINOMEscan

SGK = biological target: T27, SGK (Homo sapiens, UniProt O00141); conditions: read-out: Percent Control
T27 construct: purchased Eurofins DiscoverX KINOMEscan

EPHB3 = biological target: T28, EPHB3 (Homo sapiens, UniProt P54753); conditions: read-out: Percent Control
T28 construct: purchased Eurofins DiscoverX KINOMEscan

LRRK2(G2019S) = biological target: T29, LRRK2(G2019S) (Homo sapiens, UniProt Q5S007, G2019S); conditions: read-out: Percent Control
T29 construct: purchased Eurofins DiscoverX KINOMEscan

ADCK4 = biological target: T30, ADCK4 (Homo sapiens, UniProt Q96D53); conditions: read-out: Percent Control
T30 construct: purchased Eurofins DiscoverX KINOMEscan

ARK5 = biological target: T31, ARK5 (Homo sapiens, UniProt O60285); conditions: read-out: Percent Control
T31 construct: purchased Eurofins DiscoverX KINOMEscan

EPHA7 = biological target: T32, EPHA7 (Homo sapiens, UniProt Q15375); conditions: read-out: Percent Control
T32 construct: purchased Eurofins DiscoverX KINOMEscan

LZK = biological target: T33, LZK (Homo sapiens, UniProt O43283); conditions: read-out: Percent Control
T33 construct: purchased Eurofins DiscoverX KINOMEscan

MEK4 = biological target: T34, MEK4 (Homo sapiens, UniProt P45985); conditions: read-out: Percent Control
T34 construct: purchased Eurofins DiscoverX KINOMEscan

SgK110 = biological target: T35, SgK110 (Homo sapiens, UniProt P0C264); conditions: read-out: Percent Control
T35 construct: purchased Eurofins DiscoverX KINOMEscan

TGFBR2 = biological target: T36, TGFBR2 (Homo sapiens, UniProt P37173); conditions: read-out: Percent Control
T36 construct: purchased Eurofins DiscoverX KINOMEscan

ROCK2 = ROCK2 (Homo sapiens, UniProt O75116); set-up: purchased Eurofins DiscoverX (KINOMEscan service); conditions: read-out: Percent Control

T23 sequence (Q59H18 whole entry): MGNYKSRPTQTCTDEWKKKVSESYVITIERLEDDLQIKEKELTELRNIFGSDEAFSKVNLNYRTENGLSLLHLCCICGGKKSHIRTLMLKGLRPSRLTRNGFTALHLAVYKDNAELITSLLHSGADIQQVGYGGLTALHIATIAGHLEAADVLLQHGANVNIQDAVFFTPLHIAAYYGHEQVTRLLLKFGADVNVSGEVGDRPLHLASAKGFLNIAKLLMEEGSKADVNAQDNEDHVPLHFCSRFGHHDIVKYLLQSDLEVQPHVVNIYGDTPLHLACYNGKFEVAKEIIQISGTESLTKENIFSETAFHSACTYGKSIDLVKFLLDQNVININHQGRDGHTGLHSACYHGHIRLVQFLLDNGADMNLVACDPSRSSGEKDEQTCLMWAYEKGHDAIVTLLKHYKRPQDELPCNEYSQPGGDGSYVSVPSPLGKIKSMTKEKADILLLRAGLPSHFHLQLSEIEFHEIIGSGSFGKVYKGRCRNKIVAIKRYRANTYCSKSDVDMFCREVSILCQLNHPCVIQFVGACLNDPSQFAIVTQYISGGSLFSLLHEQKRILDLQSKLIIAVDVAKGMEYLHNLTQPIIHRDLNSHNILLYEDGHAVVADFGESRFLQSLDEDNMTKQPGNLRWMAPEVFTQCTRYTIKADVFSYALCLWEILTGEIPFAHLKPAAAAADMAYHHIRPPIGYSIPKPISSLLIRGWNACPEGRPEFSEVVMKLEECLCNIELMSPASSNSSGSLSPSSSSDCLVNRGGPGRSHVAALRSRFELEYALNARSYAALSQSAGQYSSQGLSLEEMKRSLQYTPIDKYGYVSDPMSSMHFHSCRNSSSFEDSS
T16 sequence (Q15139 whole entry): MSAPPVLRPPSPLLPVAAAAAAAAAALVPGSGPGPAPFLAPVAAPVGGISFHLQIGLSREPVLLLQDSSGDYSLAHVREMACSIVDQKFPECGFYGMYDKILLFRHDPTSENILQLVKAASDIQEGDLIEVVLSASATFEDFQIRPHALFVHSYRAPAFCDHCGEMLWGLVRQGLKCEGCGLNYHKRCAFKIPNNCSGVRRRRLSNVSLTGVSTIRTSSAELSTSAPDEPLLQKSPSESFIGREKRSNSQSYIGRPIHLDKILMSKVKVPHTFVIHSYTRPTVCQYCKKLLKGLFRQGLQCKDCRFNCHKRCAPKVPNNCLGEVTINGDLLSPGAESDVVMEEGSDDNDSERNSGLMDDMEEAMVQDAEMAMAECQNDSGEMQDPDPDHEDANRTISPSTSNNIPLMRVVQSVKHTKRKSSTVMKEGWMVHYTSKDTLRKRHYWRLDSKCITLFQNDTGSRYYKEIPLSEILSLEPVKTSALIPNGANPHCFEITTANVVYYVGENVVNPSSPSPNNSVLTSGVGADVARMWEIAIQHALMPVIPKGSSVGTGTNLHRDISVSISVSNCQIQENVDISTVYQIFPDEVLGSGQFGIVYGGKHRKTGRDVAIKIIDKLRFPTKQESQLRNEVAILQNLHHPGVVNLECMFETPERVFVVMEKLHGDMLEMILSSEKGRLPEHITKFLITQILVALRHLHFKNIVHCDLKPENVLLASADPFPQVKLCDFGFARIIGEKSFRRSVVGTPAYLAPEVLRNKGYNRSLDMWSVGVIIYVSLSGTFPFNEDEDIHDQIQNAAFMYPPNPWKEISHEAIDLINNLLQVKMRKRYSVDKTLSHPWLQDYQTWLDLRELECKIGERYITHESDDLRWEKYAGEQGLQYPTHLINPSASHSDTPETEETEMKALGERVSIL
T33 sequence (O43283 whole entry): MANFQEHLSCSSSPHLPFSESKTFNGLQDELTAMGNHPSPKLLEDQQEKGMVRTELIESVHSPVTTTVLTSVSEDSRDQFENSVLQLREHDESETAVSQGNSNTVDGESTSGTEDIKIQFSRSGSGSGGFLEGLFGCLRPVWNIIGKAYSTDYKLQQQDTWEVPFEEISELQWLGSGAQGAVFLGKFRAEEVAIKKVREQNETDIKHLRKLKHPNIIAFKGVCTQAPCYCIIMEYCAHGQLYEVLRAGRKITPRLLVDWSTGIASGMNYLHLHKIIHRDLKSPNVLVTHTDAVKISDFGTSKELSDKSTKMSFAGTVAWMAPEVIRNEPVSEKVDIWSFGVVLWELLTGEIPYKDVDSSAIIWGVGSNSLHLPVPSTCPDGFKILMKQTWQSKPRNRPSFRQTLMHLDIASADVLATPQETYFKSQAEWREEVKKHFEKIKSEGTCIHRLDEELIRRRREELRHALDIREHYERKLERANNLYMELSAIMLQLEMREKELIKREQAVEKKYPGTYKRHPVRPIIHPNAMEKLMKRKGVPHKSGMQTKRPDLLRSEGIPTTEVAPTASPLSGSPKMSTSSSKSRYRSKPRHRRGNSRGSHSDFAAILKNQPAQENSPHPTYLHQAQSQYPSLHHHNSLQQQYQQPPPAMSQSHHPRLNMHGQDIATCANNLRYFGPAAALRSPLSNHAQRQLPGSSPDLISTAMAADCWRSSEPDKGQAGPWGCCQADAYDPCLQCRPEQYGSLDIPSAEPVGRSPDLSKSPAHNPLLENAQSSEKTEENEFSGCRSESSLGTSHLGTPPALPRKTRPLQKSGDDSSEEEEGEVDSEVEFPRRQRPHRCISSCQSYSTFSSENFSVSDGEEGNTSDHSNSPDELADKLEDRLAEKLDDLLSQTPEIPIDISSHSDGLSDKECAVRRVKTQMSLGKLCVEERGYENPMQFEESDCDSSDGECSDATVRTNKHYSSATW
T26 sequence (P17948 27-1338): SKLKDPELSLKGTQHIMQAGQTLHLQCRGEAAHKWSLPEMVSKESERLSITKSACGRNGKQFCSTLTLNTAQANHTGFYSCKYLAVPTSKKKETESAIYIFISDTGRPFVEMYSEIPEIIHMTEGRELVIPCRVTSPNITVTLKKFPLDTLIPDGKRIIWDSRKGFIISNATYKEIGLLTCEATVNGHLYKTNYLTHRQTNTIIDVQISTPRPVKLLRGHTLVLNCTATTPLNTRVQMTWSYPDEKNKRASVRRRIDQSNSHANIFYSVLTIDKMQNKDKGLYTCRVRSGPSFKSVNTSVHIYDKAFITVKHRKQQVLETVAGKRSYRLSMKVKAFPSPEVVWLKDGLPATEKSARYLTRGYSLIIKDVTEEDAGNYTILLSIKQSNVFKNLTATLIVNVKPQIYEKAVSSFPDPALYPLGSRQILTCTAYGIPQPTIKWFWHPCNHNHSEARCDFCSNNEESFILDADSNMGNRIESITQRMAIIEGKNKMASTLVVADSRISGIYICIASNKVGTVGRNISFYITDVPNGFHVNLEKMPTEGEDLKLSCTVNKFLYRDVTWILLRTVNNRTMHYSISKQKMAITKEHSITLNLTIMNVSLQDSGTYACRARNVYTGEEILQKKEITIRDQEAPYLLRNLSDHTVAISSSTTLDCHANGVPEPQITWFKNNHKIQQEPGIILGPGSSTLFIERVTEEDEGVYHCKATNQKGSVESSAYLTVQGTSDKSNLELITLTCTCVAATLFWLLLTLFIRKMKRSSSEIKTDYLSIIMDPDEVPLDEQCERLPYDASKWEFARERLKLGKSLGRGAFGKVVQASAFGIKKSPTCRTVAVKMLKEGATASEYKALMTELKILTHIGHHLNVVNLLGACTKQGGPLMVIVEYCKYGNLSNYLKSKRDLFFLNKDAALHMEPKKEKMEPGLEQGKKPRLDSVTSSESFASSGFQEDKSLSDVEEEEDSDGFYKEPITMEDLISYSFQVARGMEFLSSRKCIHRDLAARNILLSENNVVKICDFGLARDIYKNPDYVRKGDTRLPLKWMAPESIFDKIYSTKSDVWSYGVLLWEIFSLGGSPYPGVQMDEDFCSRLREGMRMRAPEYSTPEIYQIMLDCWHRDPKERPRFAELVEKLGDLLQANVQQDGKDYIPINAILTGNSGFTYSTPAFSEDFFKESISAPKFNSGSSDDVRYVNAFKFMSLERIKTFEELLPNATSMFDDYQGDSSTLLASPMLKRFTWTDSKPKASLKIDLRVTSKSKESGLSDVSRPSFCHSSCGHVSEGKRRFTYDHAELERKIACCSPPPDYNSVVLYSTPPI
T34 sequence (P45985 whole entry): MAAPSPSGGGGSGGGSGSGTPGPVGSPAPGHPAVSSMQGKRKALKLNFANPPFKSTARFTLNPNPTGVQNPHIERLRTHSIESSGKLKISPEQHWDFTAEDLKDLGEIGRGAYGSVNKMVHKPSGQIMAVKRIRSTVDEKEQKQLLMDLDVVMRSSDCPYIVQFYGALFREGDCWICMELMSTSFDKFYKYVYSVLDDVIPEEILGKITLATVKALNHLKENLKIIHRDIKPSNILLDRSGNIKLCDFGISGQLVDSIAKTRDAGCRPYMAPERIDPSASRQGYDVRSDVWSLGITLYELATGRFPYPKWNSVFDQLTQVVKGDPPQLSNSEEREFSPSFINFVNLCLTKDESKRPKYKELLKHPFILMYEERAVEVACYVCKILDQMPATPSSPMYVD
T19 sequence (Q8IW41 whole entry): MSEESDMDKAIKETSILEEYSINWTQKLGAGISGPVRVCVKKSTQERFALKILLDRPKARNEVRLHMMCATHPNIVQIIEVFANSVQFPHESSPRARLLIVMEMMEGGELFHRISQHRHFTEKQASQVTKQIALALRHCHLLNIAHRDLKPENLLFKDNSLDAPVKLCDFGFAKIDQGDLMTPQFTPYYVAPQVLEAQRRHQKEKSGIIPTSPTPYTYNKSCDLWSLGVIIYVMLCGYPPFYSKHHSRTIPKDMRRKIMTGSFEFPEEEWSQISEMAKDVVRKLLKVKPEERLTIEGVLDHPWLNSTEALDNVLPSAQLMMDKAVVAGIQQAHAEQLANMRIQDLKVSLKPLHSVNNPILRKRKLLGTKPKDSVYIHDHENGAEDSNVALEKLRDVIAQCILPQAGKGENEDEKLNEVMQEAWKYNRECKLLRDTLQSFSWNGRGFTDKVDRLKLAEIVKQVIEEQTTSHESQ

Structure (SMILES): CC(C)NC(=O)COc1cccc(-c2nc(Nc3ccc4[nH]ncc4c3)c3ccccc3n2)c1 [KD025, 2-(3-(4-((1H-indazol-5-yl)amino)quinazolin-2-yl)phenoxy)-N-isopropylacetamide]
- remaining binding at 10 µM (PIP5K2B): 9.7%
- Percent Control (FLT3(ITD)): 31%
- remaining binding at 10 µM (LATS2): 48%
- remaining binding at 10 µM (LTK): 49%
- remaining binding at 10 µM (KIT(D816V)): 57%
- remaining binding at 10 µM (EPHA2): 59%
- remaining binding at 10 µM (RAF1): 62%
- remaining binding at 10 µM (STK16): 62%
- remaining binding at 10 µM (LKB1): 63%
- remaining binding at 10 µM (PIM3): 63%
- remaining binding at 10 µM (NEK3): 64%
- remaining binding at 10 µM (ALK(C1156Y)): 65%
- remaining binding at 10 µM (JNK2): 66%
- remaining binding at 10 µM (MKNK1): 68%
- remaining binding at 10 µM (MKNK2): 68%
- remaining binding at 10 µM (CASK): 70%
- remaining binding at 10 µM (PRKD1): 72%
- remaining binding at 10 µM (TSSK3): 77%
- remaining binding at 10 µM (MST1): 82%
- remaining binding at 10 µM (MAPKAPK5): 89%
- remaining binding at 10 µM (ACVR1B): 91%
- remaining binding at 10 µM (FGFR4): 91%
- remaining binding at 10 µM (LIMK1): 92%
- remaining binding at 10 µM (TNNI3K): 92%
- remaining binding at 10 µM [1]: 94%
- remaining binding at 10 µM (ASK2): 95%
- remaining binding at 10 µM (FLT1): 95%
- remaining binding at 10 µM (SGK): 95%
- remaining binding at 10 µM (EPHB3): 99%
- remaining binding at 10 µM (LRRK2(G2019S)): 99%
- remaining binding at 10 µM (ADCK4): 100%
- remaining binding at 10 µM (ARK5): 100%
- remaining binding at 10 µM (EPHA7): 100%
- remaining binding at 10 µM (LZK): 100%
- remaining binding at 10 µM (MEK4): 100%
- remaining binding at 10 µM (SgK110): 100%
- remaining binding at 10 µM (TGFBR2): 100%
- remaining binding at 10 µM (ROCK2): 0.05%
